This is an account of results in patent US20240252677A1, “ONE-COMPONENT DELIVERY SYSTEM FOR NUCLEIC ACIDS” (The Trustees of the University of Pennsylvania, priority 2021, published 2024).

Data set [1] in a line: Dimensions (size, PDI) of DNPs co-assembled from IAJDs and Luc-mRNA by DLS. Format: physicochemical. As to the method:
Dynamic Light Scattering (DLS) for the DNPs was performed in buffer with a Malvern Instruments particle sizer (Zetasizer Nano S, Malvern Instruments, UK) equipped with 4 mW He—Ne laser 633 nm and avalanche photodiode positioned at […] to the beam and temperature-controlled cuvette holder. Instrument parameters were determined automatically along with measurement times.
Formulation of DNPs Containing mRNA-Luc: IAJDs were dissolved in ethanol with various initial concentrations (5-160 mg/mL). Nucleoside-modified mRNA encoding firefly luciferase (mRNA-Luc) was dissolved in water with various initial concentrations (1-4 mg/mL). 12.5 μL of mRNA solution was placed into a clean RNAs free eppendorf (1.5 mL) and mixed with 463 μL of citrate buffer (10 mM, pH 3.0)/acetate buffer (10 mM). For encapsulation of mRNA into IAJDs, 25 μL of IAJDs of the ethanol stock solution was rapidly injected into mRNA solution in citrate or acetate buffer followed by vortex for 5 seconds.
Dynamic Light Scattering (DLS) for the sizes and polydispersities of DNPs was performed on a Malvern Instruments particle sizer (Zetasizer Nano S, Malvern Instruments, UK) equipped with 4 mW He—Ne laser 633 nm and avalanche photodiode positioned at […] to the beam and temperature-controlled cuvette holder. Instrument parameters were determined automatically along with measurement times. Sample solution (0.4 mL) was placed in a semi-micro cuvette (1.6 mL, polystyrene, 10×10×45 mm, manufactured by Greiner Bio-One) and the measurements were performed at 23° C.
Formulation of DNPs obtained by co-assembly of IAJDs and Luc-mRNA was performed as follows. IAJDs were dissolved in ethanol with an initial concentration of 80 mg/mL. Nucleoside-modified mRNA encoding firefly luciferase (Luc-mRNA) was dissolved in UltraPure DNase/RNase-free distilled water with an initial concentration of 4.0 mg/mL. 12.5 μL of Luc-mRNA solution was placed into a clean RNAs free eppendorf (1.5 mL) and 463 μL acetate buffer (10 mM, pH 4.0) was added. Then, 25 μL of IAJD in the ethanol stock solution was rapidly injected into the Luc-mRNA solution in acetate buffer followed by vortex for 5 seconds.
Dynamic Light Scattering (DLS) for the dimensions (sizes and polydispersities) of DNPs was performed on a Malvern Instruments particle sizer (Zetasizer Nano S, Malvern Instruments, UK) equipped with 4 mW He—Ne laser 633 nm and avalanche photodiode positioned at 175° to the beam and temperature-controlled cuvette holder. Instrument parameters were set up automatically along with measurement times. Sample solution (c.a. 0.4 mL) was placed in a semi-micro cuvette (1.6 mL, polystyrene, 10×10×45 mm, Greiner Bio-One) and the measurements were performed at 23° C.
Formulation of DNPs Co-assembled from IAJDs and Luc-mRNA: nucleoside-modified mRNA encoding firefly luciferase (Luc-mRNA) was dissolved in UltraPure DNase/RNase-free distilled water with an initial concentration of 4.0 mg/mL. IAJD molecules were dissolved in ethanol with an initial concentration of 80 mg/mL. 12.5 μL of Luc-mRNA solution was taken and placed into a clean RNAs free eppendorf (1.5 mL). Then 463 μL of acetate buffer (10 mM, pH 4.0) was added. Afterwards, 25 μL of IAJD in the ethanol stock solution was taken and rapidly injected into the above Luc-mRNA solution in acetate buffer followed by vortex for 5 seconds.

The subject of a further data set is liver. As to the kind of experiment: In vivo mRNA delivery, IVIS imaging of organs: liver. Conditions: Table 14. On the set-up: species or system mice. Here is the method:
(§1) The exposure time was 1 min.
(§2) Tissue luminescence signal was measured on the IVIS imaging system using an exposure time of 60 seconds using medium binning (binning=8) to ensure that the signal obtained was within operative detection range. […] Bioluminescence imaging was performed as described above.
Tissue luminescence signal was measured on the IVIS imaging system using a certain exposure time (60, 30 or 15 seconds) and medium binning (binning=8) to ensure that the signal obtained was within operative detection range.

Another data set concerns BALB/c mice. As to the kind of experiment: In vivo mRNA delivery in mice with DNPs, whole-body bioluminescence imaging (IVIS). Conditions: for Organs with luminescence: mice; for In vivo activity (total flux, p/s): Table 19, nonsymmetric IAJDs. Here is the method: as §1
Luminescence characterization for in vivo transfection experiments employed bioluminescence imaging with an IVIS Spectrum imaging system (PerkinElmer, Waltham, MA). Mice were anesthetized with 3% of isoflurane (Piramal Healthcare Limited) and intraperitoneally (i.p.) administered with D-luciferin (Regis Technologies) at a dose of 150 mg/kg of body weight. Ten minutes post administration of D-luciferin, mice were placed on the imaging platform while being maintained on isoflurane via a nose cone and imaged using an exposure time of 60 seconds. […] To quantify luminescent flux, an oval ROI was placed over each organ of interest and analyzed.
as §2
Luminescence Characterization for In Vivo Transfection Experiments: bioluminescence imaging was performed with an IVIS Spectrum imaging system (PerkinElmer, Waltham, MA).

[2] abbreviates: Table 12, DNPs, IAJD 4 mg/mL + Luc-mRNA 0.10 mg/mL, acetate buffer 10 mM pH 4.0.
Where [3] appears, read: Table 13, DNPs, IAJD 4 mg/mL + Luc-mRNA 0.10 mg/mL, acetate buffer pH 4.0.
Where [4] appears, read: Table 14, DNPs, IAJD 4 mg/mL + Luc-mRNA 0.10 mg/mL, acetate buffer pH 4.0.
[5] abbreviates: Table 16, DNPs from IAJD 4 mg/mL and Luc-mRNA 0.10 mg/mL by injection in acetate buffer (10 mM, pH 4.0).
[6] abbreviates: Table 17, DNPs used in vivo, IAJD 4 mg/mL, Luc-mRNA 0.10 mg/mL, acetate pH 4.0.
Where [7] appears, read: Table 13, IVIS imaging 5 h after injection.
[8] abbreviates: Acetate buffer 10 mM pH 4.0, CIAJD 4 mg/mL, CLuc-mRNA 0.05 mg/mL.
[9] abbreviates: Acetate buffer 10 mM pH 5.2, CIAJD 4 mg/mL, CLuc-mRNA 0.10 mg/mL.
The mark [10] stands for this setting: Citrate buffer 10 mM pH 3.0, CIAJD 4 mg/mL, CLuc-mRNA 0.05 mg/mL.
The mark [11] stands for this setting: DNP for in vivo, CIAJD 4.0 mg/mL, CLuc-mRNA 0.1 mg/mL, acetate buffer pH 5.2.

For the compound `CCCCC(CC)COc1cc(COC(=O)CCCN2CCN(CCO)CC2)cc(OCC(CC)CCCC)c1` (stereo not shown) [IAJD 87, 3,5-Bis((2-ethylhexyl)oxy)benzyl 4-(4-(2-hydroxyethyl)piperazin-1-yl)butanoate], the PDI in data set [1] (setting [2]), in data set [1] (setting [3]) and in data set [1] (setting [4]) was 0.486 in each case. The “Size (d, nm)” value in data set [1] (setting [2]), in data set [1] (setting [3]) and in data set [1] (setting [4]) was 146 nm throughout. Also, the “Organs with luminescence: liver (weak/strong)” value (shortened to “Organs … (weak/strong)”) in the data set on liver (imaging 6 h after injection) is listed as “liver (weak),”.
On to `CCCCC(CC)COc1cc(COC(=O)CCCN2CCN(CCO)CC2)cc(OCC(CC)CCCC)c1OCC(CC)CCCC` (stereo not shown) [IAJD 97, 3,4,5-Tris((2-ethylhexyl)oxy)benzyl 4-(4-(2-hydroxyethyl)piperazin-1-yl)butanoate], for which the PDI in data set [1] (setting [2]), in data set [1] (setting [3]) and in data set [1] (setting [4]) was 0.482 throughout. The “Size (d, nm)” value in data set [1] (setting [2]), in data set [1] (setting [3]) and in data set [1] (setting [4]) was 204 nm each time. For the same compound, the “Organs … (weak/strong)” value with liver (imaging 5 h after injection) was “liver (weak),”.
With `CCCCCCCCCCCCCCOc1cc(COC(=O)CCCN2CCN(C)CC2)cc(OCCCCCCCCCCCCCC)c1` [IAJD 74, 3,5-Bis(tetradecyloxy)benzyl 4-(4-methylpiperazin-1-yl)butanoate], the PDI in data set [1] (setting [2]), in data set [1] (setting [3]) and in data set [1] (setting [4]) was 0.317 each time. In addition, the “Size (d, nm)” value in data set [1] (setting [2]), in data set [1] (setting [3]) and in data set [1] (setting [4]) was 180 nm in each case. In addition, the “Organs … (weak/strong)” value with liver (imaging 5 h after injection) was “liver (weak),”.
With `CCCCCCCOC(=O)CCCCOc1cc(COC(=O)CCCN2CCN(C)CC2)cc(OCCCCC(=O)OCCCCCCC)c1` [IAJD 85, Diheptyl 5,5′-((5-(((4-(4-methylpiperazin-1-yl)butanoyl)oxy)methyl)-1,3-phenylene)bis(oxy)) dipentanoate], the PDI in data set [1] (setting [2]), in data set [1] (setting [3]) and in data set [1] (setting [4]) was 0.250 throughout. The “Size (d, nm)” value in data set [1] (setting [2]), in data set [1] (setting [3]) and in data set [1] (setting [4]) was 102 nm each time. Further, the “Organs … (weak/strong)” value in the data set on liver (imaging 5 h after injection) was “liver (weak),”.
As to `CCCCC(CC)COc1ccc(COC(=O)CCCN2CCN(C)CC2)cc1OCC(CC)CCCC` (stereo not shown) [IAJD 103, 3,4-Bis((2-ethylhexyl)oxy)benzyl 4-(4-methylpiperazin-1-yl)butanoate], the Organs with luminescence entry in the data set on BALB/c mice (Table 13, IVIS imaging 6 h after injection) is “Lung, spleen”. Besides, the PDI in data set [1] (setting [2]), in data set [1] (setting [3]) and in data set [1] (setting [4]) was 0.275 in each case. In addition, the “Size (d, nm)” value in data set [1] (setting [2]), in data set [1] (setting [3]) and in data set [1] (setting [4]) was 88 nm throughout.
Consider `CCCCCCCCCCCOc1cc(COC(=O)CCCN2CCN(CCO)CC2)cc(OCCCCCCCCC)c1` [IAJD 122, 3-(Nonyloxy)-5-(undecyloxy)benzyl 4-(4-(2-hydroxyethyl)piperazin-1-yl)butanoate], for which the “In vivo activity (total flux, p/s)” value in the data set with BALB/c mice was 2.50 × 10^7 p/s. In data set [1] (setting [5]), the PDI came out at 0.337 and the “Size (d, nm)” value worked out at 215 nm. Also, in data set [1] (setting [6]), the PDI amounted to 0.337 and the “Size (d, nm)” value is on record as 215 nm.
For the compound `CCCCCCCCCCCCOc1cc(COC(=O)CCCN2CCN(CCO)CC2)cc(OCCCCCCCCCCC)c1` [IAJD 124, 3-(Dodecyloxy)-5-(undecyloxy)benzyl 4-(4-(2-hydroxyethyl)piperazin-1-yl)butanoate], the “In vivo activity (total flux, p/s)” value in the data set with BALB/c mice is 3.77 × 10^7 p/s. In addition, in data set [1] (setting [5]), the PDI stood at 0.280 and the “Size (d, nm)” value was determined as 276 nm. In addition, in data set [1] (setting [6]), the PDI was determined as 0.280 and the “Size (d, nm)” value was determined as 276 nm.
With `CCCCCCCCCCCCOc1ccc(COC(=O)CCCN2CCN(C)CC2)cc1OCCCCCCCCCCCC` [IAJD 78, 3,4-Bis(dodecyloxy)benzyl 4-(4-methylpiperazin-1-yl)butanoate], the Organs with luminescence result in the data set with BALB/c mice (setting [7]) is on record as “Lung, spleen”. The PDI in data set [1] (setting [2]), in data set [1] (setting [3]) and in data set [1] (setting [4]) was 1.000 in each case. Besides, the “Size (d, nm)” value in data set [1] (setting [2]), in data set [1] (setting [3]) and in data set [1] (setting [4]) was 629 nm throughout.
For `CCCCCCCCCCCCOCC(COCCCCCCCCCCCC)(COCCCCCCCCCCCC)COC(=O)CCCN1CCN(C)CC1` [IAJD 82, 3-(Dodecyloxy)-2,2-bis((dodecyloxy)methyl)propyl 4-(4-methylpiperazin-1-yl)butanoate], the Organs with luminescence result in the data set on BALB/c mice (setting [7]) was “spleen”. Further, the PDI in data set [1] (setting [2]), in data set [1] (setting [3]) and in data set [1] (setting [4]) was 0.144 each time. In addition, the “Size (d, nm)” value in data set [1] (setting [2]), in data set [1] (setting [3]) and in data set [1] (setting [4]) was 162 nm in each case.
For the compound “3,5-Bis(dodecyloxy)benzyl 3-(4-methylpiperazin-1-yl)propanoate [IAJD 84]”, in the data set with BALB/c mice (4 h from injection, CIAJD 4.0 mg/mL, CLuc-mRNA 0.1 mg/mL, acetate buffer pH 5.2), the Organs with luminescence entry is listed as “Lung, spleen”. For the same compound, the PDI in data set [1] (setting [8]) was found to be 0.493; in data set [1] (setting [9]), 0.311; in data set [1] (setting [10]), 0.283; in data set [1] (setting [11]), 0.311. Further, the “Size (d, nm)” value in data set [1] (setting [8]) is given as 106 nm; in data set [1] (setting [9]) it was 199 nm; in data set [1] (setting [10]), 192 nm; in data set [1] (setting [11]), 199 nm.
`CCCCCCCCCCCCCCCCOc1cc(COC(=O)CCCN2CCN(CCO)CC2)cc(OCCCCCCCCCCC)c1` [IAJD 120, 3-(Hexadecyloxy)-5-(undecyloxy)benzyl 4-(4-(2-hydroxyethyl)piperazin-1-yl)butanoate]: the “In vivo activity (total flux, p/s)” value with BALB/c mice was 2.48 × 10^7 p/s. In data set [1] (setting [5]), the PDI was 0.474 and the “Size (d, nm)” value is 212 nm. Moreover, in data set [1] (setting [6]), the PDI worked out at 0.474 and the “Size (d, nm)” value is reported as 212 nm.
